Test results taken from US20220281930A1, “COMPOSITIONS AND METHODS FOR THE TREATMENT OF PATHOLOGICAL PAIN AND ITCH” (DUKE UNIVERSITY, priority 2019, published 2022).

What was measured:
[1] = test system: N2a cultured cells; experiment: Neuronalization of N2a cultured cells; type: cell-based, mouse; conditions: KP 0.2 μM for 3 days
[2] = test system: intracellular chloride ([Cl—]i); experiment: Secondary screen: Clomeleon chloride imaging in primary mouse neurons; type: cell-based; parameters: chloride reduction (%): concentration or dose not given beside the values
Method: The primary screen encompassed three levels of LUC measurements. The first level of screening yielded a total of 137 compounds with cut-off RLU>125% LUC activity. These 137 compounds were subject to second round of screening, which was carried out in duplicate independent assays to yield the top 103 compounds sorted for highest RLU. The 103 compounds were then subjected to a third round of screening carried out in duplicate independent assays to yield the top 40 compounds which were again ranked. The best 22 of these 40 compounds (ranked for highest RLU activity) were subjected to secondary screening: Cultured neurons were treated with the 22 compounds; RT-qPCR and Clomeleon imaging methodologies (Yeo et al., 2009, J Neurosci 29:14652-14662) were used to determine effects of compounds on KCC2 mRNA expression and [Cl—]i, respectively. Each compound was ranked based on composite scores from primary and secondary screening.
Chloride imaging of primary cultured cortical neurons was conducted as previously described (Kuner and Augustine, 2000, Neuron 27:447-459; Liedtke et al., 2013, Small 9:1066-1075; Yeo et al., 2009, J Neurosci 29:14652-14662). A Clomeleon expression plasmid was transfected into primary cortical neurons by electroporation (Amaxa Nucleofector Device). Transfected neurons were verified by yellow fluorescent protein (YFP) fluorescence, and ratiometric images (excitation at λ=434 nm, dual emission at λ=485 and 535 nm; for resting chloride, six stable frames at […] were captured, which were averaged) were acquired using RATIOTOOL program. Calibration of Clomeleon signals (535 nm/485 nm emission ratio) was performed by using tributyltin-nigericin to establish a standard curve, which was then normalized for measured intraneuronal pH to take into account the pH sensitivity of Clomeleon.
To identify KCC2 gene expression enhancing compounds, cultured primary cortical neurons were cultured from KCC2-luciferase(LUC)-knockin (KCC2-LUCki) mice (Liedtke et al., 2013, Small 9:1066-1075; Yeo et al., 2013, Proc Natl Acad Sci USA 110:4315-4320) and used LUC metrics as readout for activity of the proximal KCC2 promoter (2.5 kB (Yeo et al., 2009, J Neurosci 29:14652-14662)), which drives LUC in this mouse transgenic line. A Z′ factor of 0.94 was obtained. This strategy will not select for long-range enhancers of KCC2 gene expression that act outside the 2.5 kB core KCC2 promoter. 1057 compounds, contained in two NCI libraries (FIG. 1), related to inhibition of growth of malignantly transformed cells were screened. Iterative screening followed by measurements of KCC2 mRNA (RT-qPCR) and intracellular chloride ([Cl—]i), using clomeleon chloride indicator protein (Kuner and Augustine, 2000, Neuron 27:447-459; Yeo et al., 2009, J Neurosci 29:14652-14662), led to decreasing numbers of confirmed and re-confirmed hits, and 4 “winner” compounds were selected (FIG. 1 and Table 3).

[3] = test system: KCC2 promoter; experiment: KCC2-LUC luciferase primary screen in primary cortical neurons; type: cell-based, mouse; conditions: Natural Compounds; rank score; 100 nM, 48 h
Method: Cytosine arabinoside ([…]) was added to cultures on the second day after seeding [2 d in vitro (DIV)] to inhibit the proliferation of non-neuronal cells. Cell suspension was plated at a density of 1×10^6 cells/ml onto 24-well tissue-culture dishes coated with poly-d-lysine.
LUC activity was then determined for each compound. Culture supernatant was removed and cells were lysed with 150 μl lysis buffer (Targeting Systems CA, USA cat. CLR1). LUC activity was measured with a RedLuciferase Assay kit (Targeting Systems cat. FLAR) according to the manufacturer's instructions. A Veritas microplate luminometer was used to measure luminescence; for each treatment triplicates of 40 μl cell lysates (from each 24-well tissue-culture dish) were used and 25 μl substrate was injected per well. […] Relative Light units (RLU) for each treatment was derived from Light Units (compound treatment)/vehicle treatment (0.5% DMSO).
The primary screen encompassed three levels of LUC measurements. […] Each compound was ranked based on composite scores from primary and secondary screening.

O=C1Cc2c([nH]c3ccc(Br)cc23)-c2ccccc2N1 [kenpaullone, 9-bromo-7,12-dihydro-indolo [3,2-d] [1]benzazepin-6(5H)-one] was tested, and the neuronal differentiation [1] was “increased process formation”, the “Clomeleon Score (duplicates)” value ([2]; Natural Compounds, rank score) was 2 and the “chloride reduction (%)” value ([2]; from the [Cl—]i pair of the same line) was 33.8%. The “chloride [Cl—]i mM” value ([2]; value after compound, control => treated) was 68 => 23 mM and the “Luciferase Score (triplicates)” value [3] was 2.
